{
  "source": "patent US20080214506A1",
  "about": "“Novel use of ion channel active compound, meperidine, to mediate process of accelerated wound healing” (priority 2002, published 2008)",
  "tested_on": "surgical wound",
  "assay": "meperidine subcutaneous infiltration as local anesthetic in exodontia and oral surgery, clinical observation over five years",
  "settings": "for blood loss per case: used as the local anesthetic",
  "description": "Normal healing after surgical and third molar procedures can result in painful sequelae up to 14 days after surgery, which frequently require after-hour intervention by the surgeon. Among these sequelae are localized osteotitis (dry socket), trismus, facial edema, and protracted bleeding. For the purposes of this invention, the definition of “healed extraction site” will be a surgical wound that presents as normal clinical dental ridge architecture with pink gingival tissue and without classic granulation tissue, erythema, or edema.\nFor subcutaneous injection buccal or labial to extraction sites, meperidine is delivered in a standard insulin syringe pre-loaded with 40 mg meperidine in preservative-free solution (available as 1 cc (100 mg) ampules or 1 cc (100 mg) multidose vials). […] Consequently, early on, the use of meperidine for oral surgery was standardized as preservative-free and limited to low doses of 5-20 mg per extraction site with a maximum of 120 mg for any one individual. […] The surgical procedure also involves the concurrent use of intravenous barbituates (hexibarbitol), 0.2 mg atropine, 2 mg dexarnethasone, and concurrent use of 100% oxygen. Nitrous oxide, 20-40%, may be used intermittently during the case to assist the phobic dental patient through the procedure. Additionally each patient is encouraged to take orally 2000 units of vitamin C (adult dose) the day before surgery and 2000 units per day for 5 days postoperatively. […] (A thiophene local anesthetic has been used on rare occasions.)\nThe infiltration process usually includes 5-15 mg in the dental sulcus with 2-3 mg infused in the attached gingiva. No periodontal ligament or intraosseous injection of meperidine is used.",
  "key": {"[1]": {"settings": "healed extraction site, injection during surgery, five year period"}},
  "data": [
    {"smiles": "Nc1ccccc1", "note": "[aminobenzene]", "values": [
      {"measurement": "blood loss per case", "setting": "four impacted third molars", "value": "70-150 cc"}
    ]},
    {"smiles": "CCOC(=O)C1(c2ccccc2)CCN(C)CC1", "note": "[meperidine]", "values": [
      {"measurement": "cases presenting with pink surgical site tissue including the mucoperiostial flap", "setting": "3-4 days post surgery", "value": "60-80%"},
      {"measurement": "post-operative bleeding or wound management problems", "setting": "10 months, April 2001 through February 2002, prophylactic antibiotics not always used", "value": "No post-operative bleeding or wound management problems developed"},
      {"measurement": "patients healed before day 5 postoperatively", "setting": "before the dry socket can occur", "value": 80, "unit": "%"},
      {"measurement": "time after injection at which rapid clotting is seen", "setting": "during surgery", "value": "three"},
      {"measurement": "time for extraction socket to form a complete clot with no further bleeding", "setting": "during surgery", "value": "2 to 5", "unit": "min"},
      {"measurement": "blood loss per case, rarely went over", "setting": "four impacted third molars", "value": "≤ 20", "unit": "cc"},
      {"measurement": "blood loss per case", "setting": "four impacted third molars", "value": "2-10 cc"},
      {"measurement": "patients in whom healing occurred in 3-4 days", "setting": "[1]", "value": 80, "unit": "%"},
      {"measurement": "patients in whom healing occurred in 5-10 days", "setting": "[1]", "value": 5, "unit": "%"},
      {"measurement": "patients in whom healing occurred in 1 day", "setting": "[1]", "value": 15, "unit": "%"},
      {"measurement": "intraoperatively cardiac monitored arrythmias", "setting": "human, in vivo", "value": "disappeared"},
      {"measurement": "laryngiospasms requiring muscle paralyzing agents", "setting": "human, in vivo", "value": "not experienced"},
      {"measurement": "paresthesia", "setting": "human, in vivo", "value": "can occur"},
      {"measurement": "clinical numbness", "setting": "immediate postoperative, infiltration", "value": "without any marked clinical numbness"},
      {"measurement": "post-operative infections", "setting": "in 5 years", "value": "no post-operative infections"},
      {"measurement": "trismus or temeromandibular joint dysfunction requiring physical therapy", "setting": "in 5 years", "value": "no cases"},
      {"measurement": "relief of oral surgical pain from extractions", "setting": "infiltrated subcutaneously buccal or labial to extraction site", "value": "clinically relieve oral surgical pain"},
      {"measurement": "dry sockets", "setting": "over 5 years", "value": "disappeared from the practice"},
      {"measurement": "time after suturing until clotting satisfactory for discharge", "setting": "patient with a factor deficiency disease", "value": 15, "unit": "min"},
      {"measurement": "tissue reaction observed clinically", "setting": "solution containing a preservative, subcutaneous injection at extraction sites", "value": "excessive facial edema and tissue necrosis"},
      {"measurement": "nausea", "setting": "total body dose under 120 mg", "value": "rare"}
    ]}
  ]
}
